Experimental data published in patent US8084064B2, “Antiwrinkle agent and skin cosmetic composition” (Kao Corporation, priority 2004, dated 2011).
“Also recorded” adds a separate entry of the source.

System: Hartley guinea pigs (females)
Assay: Safety (sensitization) maximization test
Format: in vivo, guinea pig
Settings: for MR: Mean score (average of reaction scores): erythema score 0-3
Protocol: Safety (sensitization) was evaluated using a maximization test.
An area of the skin over the scapula measuring 4×6 cm^2 was shaved in Hartley guinea pigs (females) having body weights of 350 to 400 g, and two rows of three intradermal injections per row were made in the order indicated below.
1) 0.05 mL aliquots of Freund's complete adjuvant (hereinafter, to abbreviated as FCA solution) were intradermally injected at two locations on the left and right sides.
2) 0.05 mL aliquots of an olive oil solution containing 10% of a sclareol derivative obtained in the aforementioned producing examples or sclareol were intradermally injected at two locations on the left and right sides.
3) 0.05 mL aliquots of an emulsified solution obtained by adding an equal volume of sterile water to an FCA solution containing 20% sclareol or sclareol derivative obtained in the aforementioned production examples were intradermally injected at two locations on the left and right sides.
The same sites on the animals were shaved one week after these procedures, and vaseline containing 10% sodium lauryl sulfate was rubbed onto the skin to induce mild inflammation. 24 hours after rubbing, 0.2 mL of olive oil solutions containing 10% sclareol derivative sample of the present invention or sclareol were applied to a piece of gauze, which was then affixed to cover the skin for 48 hours. The abdomens of the animals were shaved on the 21st day after intradermal injection, and olive oil solutions containing 5% and 10% of a sclareol derivative sample of the present invention, or an olive oil solution containing 5% of a sclareol sample were affixed to cover the skin for 24 hours.

[1] = challenge concentration 5% in olive oil, After 24 Hours
[2] = challenge concentration 5% in olive oil, After 48 Hours
[3] = challenge concentration 10% in olive oil, After 24 Hours
[4] = challenge concentration 10% in olive oil, After 48 Hours

Row | Molecule | PR: Sensitization rate (Number of positive animals/Number of animals used) [1] | MR: Mean score (average of reaction scores) [1] | PR: Sensitization rate (Number of positive animals/Number of animals used) [2] | MR: Mean score (average of reaction scores) [2] | PR: Sensitization rate (Number of positive animals/Number of animals used) [3] | MR: Mean score (average of reaction scores) [3] | PR: Sensitization rate (Number of positive animals/Number of animals used) [4] | MR: Mean score (average of reaction scores) [4] | Sensitization (result in words) (maximization test, guinea pigs)
1 | monoacetylated sclareol | 0, (0) | 0, (0) | 0, (0) | 0, (0) | 0, (0) | 0, (0) | 0, (0) | 0, (0) | 
2 | C=C[C@@](C)(CC[C@@H]1[C@@]2(C)CCCC(C)(C)[C@@H]2CC[C@@]1(C)OC(C)=O)OC(C)=O [Diacetylated sclareol, diacetylated sclareol] | 0, (0) | 0, (0) | 0, (0) | 0, (0) | 0, (0) | 0, (0) | 0, (0) | 0, (0) | 
3 | CC[C@](C)(O)CCC1[C@@]2(C)CCCC(C)(C)C2CC[C@@]1(C)O (some centres unmarked) [Hydrogenated sclareol, hydrogenated sclareol] | 0, (0) | 0, (0) | 0, (0) | 0, (0) | 0, (0) | 0, (0) | 0, (0) | 0, (0) | 
4 | C=C[C@@](C)(O)CCC1[C@@]2(C)CCCC(C)(C)C2CC[C@@]1(C)O (some centres unmarked) [Sclareol, sclareol, reference compound] | 4/10 | 0.4 | 4/10 | 0.4 |  |  |  |  | has skin sensitizing properties; also recorded: sensitization being confirmed
